target: T1, Receptor-interacting serine/threonine-protein kinase 1 (Homo sapiens, UniProt Q13546); assay: Cell Viability Test
T1 sequence (Q13546 whole entry): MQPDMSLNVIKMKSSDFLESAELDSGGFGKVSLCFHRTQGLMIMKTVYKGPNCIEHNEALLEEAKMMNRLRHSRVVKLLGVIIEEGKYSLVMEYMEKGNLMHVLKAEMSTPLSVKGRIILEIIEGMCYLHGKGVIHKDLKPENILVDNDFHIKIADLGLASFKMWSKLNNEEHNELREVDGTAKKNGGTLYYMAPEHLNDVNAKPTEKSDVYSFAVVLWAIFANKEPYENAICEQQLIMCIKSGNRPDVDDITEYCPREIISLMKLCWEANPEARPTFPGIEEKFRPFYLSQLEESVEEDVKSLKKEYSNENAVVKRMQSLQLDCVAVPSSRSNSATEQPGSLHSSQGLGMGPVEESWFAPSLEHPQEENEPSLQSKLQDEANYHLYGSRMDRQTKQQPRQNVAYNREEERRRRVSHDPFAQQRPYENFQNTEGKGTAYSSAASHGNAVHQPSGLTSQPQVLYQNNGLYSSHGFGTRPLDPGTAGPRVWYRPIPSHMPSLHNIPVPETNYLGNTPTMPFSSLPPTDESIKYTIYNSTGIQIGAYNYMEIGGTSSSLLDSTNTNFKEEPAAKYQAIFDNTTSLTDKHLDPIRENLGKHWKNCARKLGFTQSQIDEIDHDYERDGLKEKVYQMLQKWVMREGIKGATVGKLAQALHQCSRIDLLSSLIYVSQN
Source text: TNFalpha induced U937 cell programmed necroptosis system was used to screen for compounds with RIP 1 kinase inhibitory activity.

Q: Which IC50 does the source give for CN1C(=O)[C@@H](NC(=O)c2n[nH]c(Cc3ccccc3)n2)COc2ccc(C#Cc3ccccn3)cc21 [US12065447, Compound ZB-R-50] here?
A: 0.26 nM

Q: Cc1c(C#Cc2cccnc2)sc2c1SC[C@H](NC(=O)c1nnc(Cc3ccccc3)[nH]1)C(=O)N2C [US12065447, Compound ZB-R-42] was tested. Which IC50 did it give?
A: 0.32 nM

Q: With Cc1c(C#CC(C)(C)O)sc2c1SC[C@H](NC(=O)c1nnc(Cc3ccccc3)[nH]1)C(=O)N2C [US12065447, Compound ZB-R-85] as the compound, how does the IC50 read?
A: 1.09 nM

Q: Which IC50 does the source give for Cc1c(C#CC2CCOCC2)sc2c1SC[C@H](NC(=O)c1nnc(Cc3ccccc3)[nH]1)C(=O)N2C [US12065447, Compound ZB-R-44] here?
A: 4.08 nM

Q: Which IC50 does the source give for CN1C(=O)[C@@H](NC(=O)c2n[nH]c(Cc3ccccc3)n2)COc2ccc(C#CC(C)(C)O)cc21 [US12065447, Compound ZB-R-76] here?
A: 0.54 nM

Q: How did the IC50 turn out when COCC#Cc1sc2c(c1C)SC[C@H](NC(=O)c1nnc(Cc3ccccc3)[nH]1)C(=O)N2C [US12065447, Compound ZB-R-84] was run?
A: 0.19 nM

Q: How did the IC50 turn out when Cc1cc([C@](C)(O)C#Cc2sc3c(c2C)SC[C@H](NC(=O)c2nnc(Cc4ccccc4)[nH]2)C(=O)N3C)no1 [US12065447, Compound ZB-R-89] was run?
A: 1.7 nM

Q: Which IC50 does the source give for CN1C(=O)[C@@H](NC(=O)c2ncn(Cc3ccccc3)n2)COc2ccc(C#Cc3cccnc3)cc21 [US12065447, Compound ZB-R-24] here?
A: < 1 nM

Q: How did the IC50 turn out when Cc1c(C#CC2CC2)sc2c1SC[C@H](NC(=O)c1nnc(Cc3ccccc3)[nH]1)C(=O)N2C [US12065447, Compound ZB-R-45] was run?
A: 8.13 nM

Q: CN1C(=O)[C@@H](NC(=O)c2n[nH]c(Cc3ccccc3)n2)COc2ccc(C#Cc3ccncc3)cc21 [US12065447, Compound ZB-R-52] was tested. Which IC50 did it give?
A: 0.42 nM

Q: With Cc1c(C#Cc2cncn2C)sc2c1SC[C@H](NC(=O)c1nnc(Cc3ccccc3)[nH]1)C(=O)N2C [US12065447, Compound ZB-R-82] as the compound, how does the IC50 read?
A: 0.3 nM

Q: With CN1C(=O)[C@@H](NC(=O)c2n[nH]c(Cc3ccccc3)n2)COc2ccc(C#CC3(O)COC3)cc21 [US12065447, Compound ZB-R-78] as the compound, how does the IC50 read?
A: 0.35 nM

Q: With Cc1c(C#Cc2ccccn2)sc2c1SC[C@H](NC(=O)c1nnc(Cc3ccccc3)[nH]1)C(=O)N2C [US12065447, Compound ZB-R-46] as the compound, how does the IC50 read?
A: 5.39 nM

Q: For CN1C(=O)[C@@H](NC(=O)c2n[nH]c(Cc3ccccc3)n2)COc2ccc(C#CC3CCOCC3)cc21 [US12065447, Compound ZB-R-54], which IC50 is on record?
A: 0.1 nM

Q: How did the IC50 turn out when Cc1cc([C@](C)(O)C#Cc2ccc3c(c2)N(C)C(=O)[C@@H](NC(=O)c2nnc(Cc4ccccc4)[nH]2)CO3)no1 [US12065447, Compound ZB-R-80] was run?
A: 0.31 nM

Q: How did the IC50 turn out when CN1C(=O)[C@@H](NC(=O)c2ncc(Cc3ccccc3)o2)COc2ccc(C#Cc3cccnc3)cc21 [US12065447, Compound ZB-R-20] was run?
A: < 0.5 nM

Q: Which IC50 does the source give for CN1C(=O)[C@@H](NC(=O)c2n[nH]c(Cc3ccccc3)n2)COc2ccc(C#Cc3cccnc3)cc21 [US12065447, Compound ZB-R-51] here?
A: < 0.5 nM

Q: With CN1C(=O)[C@@H](NC(=O)c2cc(Cc3ccccc3)ccn2)COc2ccc(C#Cc3cccnc3)cc21 [US12065447, Compound ZB-R-25] as the compound, how does the IC50 read?
A: < 2 nM

Q: For CN1C(=O)[C@@H](NC(=O)c2n[nH]c(Cc3ccccc3)n2)COc2ccc(C#Cc3cnn(C)c3)cc21 [US12065447, Compound ZB-R-53], which IC50 is on record?
A: 0.11 nM

Q: With Cc1c(C#CC2(O)COC2)sc2c1SC[C@H](NC(=O)c1nnc(Cc3ccccc3)[nH]1)C(=O)N2C [US12065447, Compound ZB-R-87] as the compound, how does the IC50 read?
A: 0.2 nM

Q: COCC#Cc1ccc2c(c1)N(C)C(=O)[C@@H](NC(=O)c1nnc(Cc3ccccc3)[nH]1)CO2 [US12065447, Compound ZB-R-68] was tested. Which IC50 did it give?
A: 0.2 nM

Q: How did the IC50 turn out when Cc1c(C#Cc2cnn(C)c2)sc2c1SC[C@H](NC(=O)c1nnc(Cc3ccccc3)[nH]1)C(=O)N2C [US12065447, Compound ZB-R-39] was run?
A: 0.17 nM

Q: For Cc1cc([C@@](C)(O)C#Cc2ccc3c(c2)N(C)C(=O)[C@@H](NC(=O)c2nnc(Cc4ccccc4)[nH]2)CO3)no1 [US12065447, Compound ZB-R-81], which IC50 is on record?
A: 0.29 nM

Q: Cc1c(C#Cc2ccncc2)sc2c1SC[C@H](NC(=O)c1nnc(Cc3ccccc3)[nH]1)C(=O)N2C [US12065447, Compound ZB-R-47] was tested. Which IC50 did it give?
A: 0.39 nM

Reference: BindingDB's records for patent US12065447 (Shanghai Institute of Materia Medica, 2024)
